According to ChEMBL document CHEMBL1126955, “Substituted thiopyrano[2,3,4-c,d]indoles as potent, selective, and orally active inhibitors of 5-lipoxygenase. Synthesis and biological evaluation of L-691,816” (J Med Chem, 1993):

How the values were obtained:
[1] = molecular target: T1, Polyunsaturated fatty acid 5-lipoxygenase (Rattus norvegicus, UniProt P12527); assay: In vitro test for inhibition of 5-lipoxygenase in cell-free preparations from rat PMN leukocytes
T1 sequence (P12527 whole entry): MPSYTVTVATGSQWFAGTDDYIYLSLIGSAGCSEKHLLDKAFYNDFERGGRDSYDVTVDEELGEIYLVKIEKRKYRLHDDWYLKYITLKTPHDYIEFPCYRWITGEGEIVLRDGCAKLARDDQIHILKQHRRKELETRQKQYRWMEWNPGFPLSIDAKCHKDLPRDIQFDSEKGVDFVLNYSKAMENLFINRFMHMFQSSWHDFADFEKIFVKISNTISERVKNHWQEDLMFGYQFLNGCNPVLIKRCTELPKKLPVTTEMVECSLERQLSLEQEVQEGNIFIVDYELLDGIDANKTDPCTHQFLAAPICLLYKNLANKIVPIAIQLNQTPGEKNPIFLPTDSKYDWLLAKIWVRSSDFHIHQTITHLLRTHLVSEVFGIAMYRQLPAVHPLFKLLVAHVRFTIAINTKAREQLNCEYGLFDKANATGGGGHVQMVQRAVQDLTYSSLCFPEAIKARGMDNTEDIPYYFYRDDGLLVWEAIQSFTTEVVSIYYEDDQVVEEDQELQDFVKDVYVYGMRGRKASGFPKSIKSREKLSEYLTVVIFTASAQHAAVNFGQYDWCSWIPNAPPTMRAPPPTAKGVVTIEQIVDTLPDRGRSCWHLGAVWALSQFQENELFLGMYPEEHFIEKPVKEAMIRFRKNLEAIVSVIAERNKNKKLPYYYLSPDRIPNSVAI

[2] = molecular target: T2, Polyunsaturated fatty acid 5-lipoxygenase (Homo sapiens, UniProt P09917); assay: In vitro inhibition of LTB4 biosynthesis in [Ca(2+)]-ionophore-activated human polymorphonuclear leukocytes; assay type: functional
T2 sequence (P09917 whole entry): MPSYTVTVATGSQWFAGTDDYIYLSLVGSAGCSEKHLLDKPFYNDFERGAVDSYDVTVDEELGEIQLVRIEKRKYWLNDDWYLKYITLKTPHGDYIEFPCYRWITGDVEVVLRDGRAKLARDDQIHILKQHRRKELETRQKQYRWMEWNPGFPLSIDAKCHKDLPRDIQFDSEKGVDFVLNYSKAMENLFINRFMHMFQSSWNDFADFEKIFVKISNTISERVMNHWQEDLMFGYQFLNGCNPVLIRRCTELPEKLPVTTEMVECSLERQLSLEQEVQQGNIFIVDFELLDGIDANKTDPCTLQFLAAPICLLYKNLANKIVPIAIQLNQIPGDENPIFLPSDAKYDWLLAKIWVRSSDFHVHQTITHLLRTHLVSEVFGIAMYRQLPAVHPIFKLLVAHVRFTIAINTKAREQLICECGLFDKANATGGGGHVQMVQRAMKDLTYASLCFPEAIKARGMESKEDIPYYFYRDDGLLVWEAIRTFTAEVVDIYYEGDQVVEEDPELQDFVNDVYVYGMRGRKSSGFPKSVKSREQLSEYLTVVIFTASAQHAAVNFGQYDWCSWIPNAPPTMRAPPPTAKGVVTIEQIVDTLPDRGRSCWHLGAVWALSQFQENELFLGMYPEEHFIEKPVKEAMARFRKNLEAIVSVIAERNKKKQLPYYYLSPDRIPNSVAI

Homo sapiens [3] = species on record: Homo sapiens; assay: Tested in vitro for the inhibition of LTB4 biosynthesis in [Ca(2+)]-ionophore-activated human polymorphonuclear leukocytes; (Result of a single titration); assay type: functional
[4] = molecular target: T3, Arachidonate 5-lipoxygenase-activating protein (Homo sapiens, UniProt P20292); assay: Tested for inhibition of leukotriene biosynthesis by binding to 5-lipoxygenase activating protein
T3 sequence (P20292 whole entry): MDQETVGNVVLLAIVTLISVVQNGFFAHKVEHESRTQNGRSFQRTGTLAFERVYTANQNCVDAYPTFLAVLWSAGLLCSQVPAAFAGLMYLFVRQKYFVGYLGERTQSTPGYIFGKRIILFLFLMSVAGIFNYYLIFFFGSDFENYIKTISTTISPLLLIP

[5] = molecular target: T4, Polyunsaturated fatty acid 5-lipoxygenase (Rattus norvegicus) (UniProt P12527); assay: Tested in vitro for the inhibition of 5-lipoxygenase in cell-free preparations from rat PMN leukocytes; details: concentration not given here
T4 sequence (whole entry): T1 sequence (P12527 whole entry)

[6] = Peak concentration in rat plasma was determined; assay type: ADME, organism-based
[7] = Bioavailability in rat (dose 20 mg/kg p.o. in 1% methocel, and 5 mg/kg i.v. in PEG400); assay type: ADME, organism-based; details: in vivo, po
Rattus norvegicus = assay: Tested for percent inhibition of dyspnea duration in hyperreactive rat model after peroral administration of 5 mg/kg; assay type: functional; details: route oral
[8] = Maximum time taken for compound to reach peak concentration in rat plasma; assay type: ADME, organism-based
Homo sapiens [9] = species on record: Homo sapiens; assay: Tested in vitro for the inhibition of LTB4 biosynthesis in [Ca(2+)]-ionophore-activated human polymorphonuclear leukocytes (Result of a single titration); assay type: functional

SMILES	IC50 [1]	IC50 [2]	further results
CC1Cc2c(OCc3ccc(-c4ccccc4)cn3)ccc3c2c(c(CCC(=O)O)n3Cc2ccc(Cl)cc2)S1 (stereo not drawn)	140 nM	38 nM	–
CC1Cc2c(OCc3ccc(-c4ccccc4)cn3)ccc3c2c(c(CC(C)(C)C(=O)O)n3C(=O)c2ccccc2)S1 (stereo not drawn)	140 nM	–	IC50 (Homo sapiens [3]): 60 nM
CC1Cc2c(OCc3ccc(-c4ccccc4)cn3)ccc3c2c(c(CC(C)(C)CC(N)=O)n3Cc2ccc(Cl)cc2)S1 (stereo not drawn)	–	–	IC50 (Homo sapiens [3]): 1500 nM
CC1Cc2c(OCc3ccc(C#N)cn3)ccc3c2c(c(CC(C)(C)C(=O)O)n3Cc2ccc(Cl)cc2)S1 (stereo not drawn)	350 nM	66 nM	–
CSc1c(CC(C)(C)C(=O)O)n(Cc2ccc(Cl)cc2)c2ccc(OCc3ccc(-c4ccccc4)cn3)cc12	600 nM	170 nM	–
CC1Cc2c(OCc3ccc(-c4ccccc4)cn3)ccc3c2c(c(CC(C)(C)C(=O)O)n3Cc2ccc(S(C)(=O)=O)cc2)S1 (stereo not drawn)	350 nM	420 nM	–
COc1ccc(Cn2c(CC(C)(C)C(=O)O)c3c4c(c(OCc5ccc(-c6ccccc6)cn5)ccc42)CC(C)S3)cc1 (stereo not drawn)	40 nM	28 nM	–
CC1Cc2c(OCc3ccc(-c4ccccc4)cc3)ccc3c2c(c(CC(C)(C)C(=O)O)n3Cc2ccc(Cl)cc2)S1 (stereo not drawn)	1000 nM	165 nM	–
CC1Cc2c(OCc3cccc(-c4ccccc4)n3)ccc3c2c(c(CC(C)(C)C(=O)O)n3Cc2ccc(Cl)cc2)S1 (stereo not drawn)	2500 nM	27 nM	–
CCCCn1c(CC(C)(C)C(=O)O)c2c3c(c(OCc4ccc(-c5ccccc5)cn4)ccc31)CC(C)S2 (stereo not drawn)	130 nM	95 nM	–
CC1Cc2c(OCc3cccs3)ccc3c2c(c(CC(C)(C)C(=O)O)n3Cc2ccc(Cl)cc2)S1 (stereo not drawn)	2000 nM	28 nM	–
CC1Cc2c(OCc3ccc(-c4ccccc4)cn3)ccc3c2c(c(C(=O)O)n3Cc2ccc(Cl)cc2)S1 (stereo not drawn)	2000 nM	97 nM	–
CC1Cc2c(OCc3ccc(-c4ccccc4)cn3)ccc3c2c(c(CC(C)(C)C(=O)O)n3Cc2ccccn2)S1 (stereo not drawn)	45 nM	110 nM	–
COc1cccc(Cn2c(CC(C)(C)C(=O)O)c3c4c(c(OCc5ccc(-c6ccccc6)cn5)ccc42)CC(C)S3)c1 (stereo not drawn)	40 nM	28 nM	–
CC1Cc2c(OCc3ccc(C(=O)O)cn3)ccc3c2c(c(CC(C)(C)C(=O)O)n3Cc2ccc(Cl)cc2)S1 (stereo not drawn)	> 2000 nM	–	IC50 (Homo sapiens [9]): > 2000 nM
CC1Cc2c(OCc3cc4ccccc4cn3)ccc3c2c(c(CC(C)(C)C(=O)O)n3Cc2ccc(Cl)cc2)S1 (stereo not drawn)	400 nM	20 nM	IC50 [4]: 390 nM
CC1Cc2c(OCc3ccc(-c4ccccc4)cn3)ccc3c2c(c(CC(C)(C)CC(=O)N(C)O)n3Cc2ccc(Cl)cc2)S1 (stereo not drawn)	–	–	IC50 (Homo sapiens [3]): 500 nM
CC1Cc2c(OCc3ccc(-c4ccccc4)cn3)ccc3c2c(c(CC(C)(C)C(=O)O)n3CCCc2ccccc2)S1 (stereo not drawn)	35 nM	23 nM	–
CC1Cc2c(OCc3ccc(-c4ccccc4)cn3)ccc3c2c(c(CC(C)(C)C(=O)O)n3Cc2ccc(Cl)cc2)S1 (stereo not drawn)	–	22 nM	–
CC1Cc2c(OCc3ccc(-c4ccccc4)cn3)ccc3c2c(c(CC(C)(C)CC(=O)NS(=O)(=O)C(F)(F)F)n3Cc2ccc(Cl)cc2)S1 (stereo not drawn)	67 nM	125 nM	–

More lines, main results first:

IC50 [1]	IC50 [2]	SMILES	further results
3000 nM	88 nM	CC1(C)Cc2c(OCc3ccc(-c4ccccc4)cn3)ccc3c2c(c(CC(C)(C)C(=O)O)n3Cc2ccc(Cl)cc2)S1	–
400 nM	12 nM	COc1ccc(COc2ccc3c4c2CC(C)Sc4c(CC(C)(C)C(=O)O)n3Cc2ccc(Cl)cc2)nc1 (stereo not drawn)	IC50 [4]: 40 nM
–	300 nM	CC1Cc2c(OCc3ccc(-c4ccccc4)cn3)ccc3c2c(c(CC(C)(C)C(=O)O)n3C)S1 (stereo not drawn)	–
200 nM	37 nM	CC1Cc2c(OCc3ccc(-c4ccccc4)cn3)ccc3c2c(c(CC(=O)O)n3Cc2ccc(Cl)cc2)S1 (stereo not drawn)	–
–	500 nM	CC1Cc2c(OCc3ccc(-c4ccccc4)cn3)ccc3[nH]c(CC(C)(C)C(=O)O)c(c23)S1 (stereo not drawn)	inhibition [5]: 23%
320 nM	210 nM	CC1Cc2c(OCc3ccc(-c4ccccc4)cn3)ccc3c2c(c(CC(C)(C)C(=O)O)n3Cc2ccc(Cl)cc2)S1(=O)=O (stereo not drawn)	–
30 nM	16 nM	CC1Cc2c(OCc3ccc(-c4ccccc4)cn3)ccc3c2c(c(CC(C)(C)C(=O)O)n3Cc2ccc(-c3ccccc3)cn2)S1 (stereo not drawn)	–
36 nM	11 nM	CC1Cc2c(OCc3ccc(-c4ccccc4)cn3)ccc3c2c(c(CC(C)(C)CC(=O)NS(C)(=O)=O)n3Cc2ccc(Cl)cc2)S1 (stereo not drawn)	Cmax [6]: 12 µM; bioavailability [7]: 45%; inhibition in vivo at 5 mg/kg (Rattus norvegicus): 44%; Tmax [8]: 4 h
200 nM	100 nM	CC(C)(Cc1c2c3c(c(OCc4ccc(-c5ccccc5)cn4)ccc3n1Cc1ccc(Cl)cc1)CCS2)C(=O)O	–
330 nM	23 nM	CC1Cc2c(OCc3ccc(-c4ccccc4)cn3)ccc3c2c(c(CCC(C)(C)C(=O)O)n3Cc2ccc(Cl)cc2)S1 (stereo not drawn)	–
130 nM	33 nM	CCC1Cc2c(OCc3ccc(-c4ccccc4)cn3)ccc3c2c(c(CC(C)(C)C(=O)O)n3Cc2ccc(Cl)cc2)S1 (stereo not drawn)	–
20 nM	12 nM	CC1Cc2c(OCc3ccc(-c4ccccc4)cn3)ccc3c2c(c(CC(C)(C)CC(=O)O)n3Cc2ccc(Cl)cc2)S1 (stereo not drawn)	Cmax [6]: 4 µM; bioavailability [7]: 27%; inhibition in vivo at 5 mg/kg (Rattus norvegicus): 54%; Tmax [8]: 2 h
630 nM	35 nM	CC1Cc2c(OCc3ccccn3)ccc3c2c(c(CC(C)(C)C(=O)O)n3Cc2ccc(Cl)cc2)S1 (stereo not drawn)	IC50 [4]: 110 nM
–	160 nM	CC(C)(Cc1c2c3c(c(OCc4ccc(-c5ccccc5)cn4)ccc3n1Cc1ccc(Cl)cc1)CCCS2)C(=O)O	inhibition [5]: 20%
8000 nM	–	C[C@H]1Cc2c(OCc3ccc(-c4ccccc4)cn3)ccc3c2c(c(CC(C)(C)C(=O)O)n3Cc2ccc(Cl)cc2)[S+]1[O-] (stereo partly drawn)	IC50 (Homo sapiens [3]): > 2000 nM
35 nM	33 nM	CC1Cc2c(OCc3ccc(-c4ccccc4)cn3)ccc3c2c(c(CC(C)(C)C(=O)O)n3CC2CCCCC2)S1 (stereo not drawn)	–
120 nM	11 nM	CC1Cc2c(SCc3ccc(-c4ccccc4)cn3)ccc3c2c(c(CC(C)(C)Cc2nnn[nH]2)n3Cc2ccc(Cl)cc2)S1 (stereo not drawn)	–
1200 nM	46 nM	CC1Cc2c(OCCc3ccc(-c4ccccc4)cn3)ccc3c2c(c(CC(C)(C)Cc2nnn[nH]2)n3Cc2ccc(Cl)cc2)S1 (stereo not drawn)	–
330 nM	830 nM	C[C@@H]1Cc2c(OCc3ccc(-c4ccccc4)cn3)ccc3c2c(c(CC(C)(C)C(=O)O)n3Cc2ccc(Cl)cc2)[S+]1[O-] (stereo partly drawn)	–
500 nM	42 nM	CCCCc1ccc(COc2ccc3c4c2CC(C)Sc4c(CC(C)(C)C(=O)O)n3Cc2ccc(Cl)cc2)nc1 (stereo not drawn)	–
600 nM	3 nM	CC1Cc2c(OCc3ccc4ccccc4n3)ccc3c2c(c(CC(C)(C)C(=O)O)n3Cc2ccc(Cl)cc2)S1 (stereo not drawn)	–
2000 nM	80 nM	CC1Cc2c(OCc3cc(-c4ccccc4)ccn3)ccc3c2c(c(CC(C)(C)C(=O)O)n3Cc2ccc(Cl)cc2)S1 (stereo not drawn)	–
130 nM	19 nM	CC1Cc2c(OCc3ccc(-c4ccccc4)cn3)ccc3c2c(c(CC(C)(C)CCC(=O)O)n3Cc2ccc(Cl)cc2)S1 (stereo not drawn)	–
